Assay results as given in article PMC2375285, “Inhibition of all-TRANS-retinoic acid metabolism by R116010 induces antitumour activity” (British Journal of Cancer, 2002).

Legend:
[1] = test system: RA metabolism in T47D cells; assay: Reverse-phase HPLC analysis of radiolabelled RA metabolites in T47D cells; assay type: cell-based, human; details: 1 μM R116010; T47D cells pretreated with 1 μM RA
Description: The T47D cell suspension was prepared as described above and 450 μl was incubated with 0.1 μM [11, 12-^3H(N)]RA for 90 min. After centrifugation for 10 min at 780 g, the supernatant was analyzed for the presence of RA metabolites. Reverse-phase HPLC analysis was carried out as described previously ([Van heusden et al, 1998]).

CYP26A1 = target: T1, CYP26A1 (Homo sapiens, UniProt O43174); assay: RA 4-hydroxylase in T47D human breast cancer microsomes; assay type: biochemical
T1 construct: microsomes of T47D human breast cancer cells that were pretreated for 16 h with 1 μM RA to induce RA metabolism; endogenous in cells; host or cells: T47D human breast cancer cells, pretreated with 1 μM RA for 16 h; microsomal fraction
T1 sequence (O43174 1-497): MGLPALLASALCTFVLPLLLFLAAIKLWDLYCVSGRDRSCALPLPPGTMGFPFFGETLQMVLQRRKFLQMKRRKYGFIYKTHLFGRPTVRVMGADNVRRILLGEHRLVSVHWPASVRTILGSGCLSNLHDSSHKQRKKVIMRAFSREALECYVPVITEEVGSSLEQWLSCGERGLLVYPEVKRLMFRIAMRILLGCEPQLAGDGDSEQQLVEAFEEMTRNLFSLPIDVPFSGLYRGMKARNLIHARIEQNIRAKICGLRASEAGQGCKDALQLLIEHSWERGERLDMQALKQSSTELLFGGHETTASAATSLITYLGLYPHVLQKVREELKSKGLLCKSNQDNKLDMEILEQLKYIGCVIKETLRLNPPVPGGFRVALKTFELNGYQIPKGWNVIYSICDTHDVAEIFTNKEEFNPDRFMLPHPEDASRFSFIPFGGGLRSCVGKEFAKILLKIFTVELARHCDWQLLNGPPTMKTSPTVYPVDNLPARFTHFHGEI
Description: Metabolism of RA by CYP26A1 was measured in microsomes of T47D human breast cancer cells that were pretreated for 16 h with 1 μM RA to induce RA metabolism. Microsomes were prepared exactly as described by [Han and Choi (1996)], and RA metabolism was measured as described by [Van Wauwe et al (1994)]. The conversion of androstenedione to estrone by aromatase (CYP19) in human placental microsomes, the conversion of 17-hydroxy-20-dihydroprogesterone to testosterone by 17,20-lyase (CYP17) in rat testicular S10 fractions, and the 2α-, 7α-, 6β-, and 16β-hydroxylation of testosterone (CYP2C11, CYP2A1, CYP3A, CYP2B1/2) in rat liver microsomes were carried out as described ([Vanden Bossche et al, 1990]).

CYP2A1 = target: T2, CYP2A1 (Rattus norvegicus, UniProt P11711); assay: Testosterone 7α-hydroxylase in rat liver microsomes; assay type: biochemical
T2 construct: hydroxylation of testosterone (CYP2C11, CYP2A1, CYP3A, CYP2B1/2) in rat liver microsomes; from tissue; host or cells: rat liver, microsomes
T2 sequence (P11711 1-492): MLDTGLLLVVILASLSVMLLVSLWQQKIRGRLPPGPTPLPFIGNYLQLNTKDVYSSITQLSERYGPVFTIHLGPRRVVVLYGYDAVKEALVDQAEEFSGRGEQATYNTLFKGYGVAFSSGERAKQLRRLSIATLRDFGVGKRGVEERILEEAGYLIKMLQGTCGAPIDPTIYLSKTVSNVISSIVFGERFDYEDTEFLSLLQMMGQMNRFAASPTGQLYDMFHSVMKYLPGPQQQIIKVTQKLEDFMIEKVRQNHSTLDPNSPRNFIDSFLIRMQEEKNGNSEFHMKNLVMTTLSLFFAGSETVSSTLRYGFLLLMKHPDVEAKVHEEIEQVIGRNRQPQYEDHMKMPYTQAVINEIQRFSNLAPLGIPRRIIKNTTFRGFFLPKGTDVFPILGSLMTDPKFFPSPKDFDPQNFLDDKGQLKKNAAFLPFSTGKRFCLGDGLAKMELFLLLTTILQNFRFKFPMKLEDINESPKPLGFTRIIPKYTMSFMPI
Description: (§1) The conversion of androstenedione to estrone by aromatase (CYP19) in human placental microsomes, the conversion of 17-hydroxy-20-dihydroprogesterone to testosterone by 17,20-lyase (CYP17) in rat testicular S10 fractions, and the 2α-, 7α-, 6β-, and 16β-hydroxylation of testosterone (CYP2C11, CYP2A1, CYP3A, CYP2B1/2) in rat liver microsomes were carried out as described ([Vanden Bossche et al, 1990]).

CYP2B1/2 = assay: Testosterone 16β-hydroxylase in rat liver microsomes; assay type: biochemical; details: probe testosterone (16β-hydroxylation)
Description: as §1

T47D cells = assay: T47D cell proliferation (MTT assay, 7 days); assay type: cell-based, human; details: for enhancement of the antiproliferative activity of RA: T47D cells
Description: T47D cells were seeded in Falcon® 96-well cell culture plates (Life Technologies, Merelbeke, Belgium) at 2500 cells per well in a total volume of 150 μl. Cells were allowed to adhere to plastic for 24 h. Drugs and/or medium were added to a final volume of 200 μl (day 0). Cells were grown under these conditions for 7 days, with renewal of medium and drugs on days 2 and 5. On day 7, medium was renewed and 25 μl MTT-solution was added, and cells were further incubated for 2 h in a cell incubator. The medium was aspirated and 25 μl Sorensen glycine buffer (0.1 M glycine, 0.1 M NaCl; pH 10.5) was added together with 100 μl DMSO to solubilize the blue MTT-formazan product. […] Data are presented as mean±s.d. of three or four independent experiments. Within an experiment, the result of each experimental condition is the mean of six replicate wells. The IC50-values were calculated by non-linear regression analysis using SigmaPlot 4.01 software.

[2] = Blood hormone levels in rats treated with R116010; assay type: in vivo; details: 10 mg kg^−1 R116010
[3] = test system: androgen-independent rat prostatic Dunning R3327/PIF-1 carcinoma cells; set-up: method as in Van Ginckel et al, 1999; details: in vivo; ref Van Ginckel et al, 1999; cited from earlier work
in vivo = details: mouse, po
Description: (§2) Cells (1.5×10^6) were injected intraperitoneally in syngeneic A/J mice. […] Each group consisted of 10 animals for experiments with R116010 and of six animals for experiments with RA. All treatments were performed by oral gavage. […] The control groups were given the vehicle 20% 4-OH-β-cyclodextrine in sterile saline. Mice were daily examined for adverse drug effects. At the end of the experiments, subcutaneous tumours were excised 24 h after the last treatment and weighed to validate the antitumoural effects of the treatment.
(§3) Data are represented as box plots showing median group value, 25/75th percentile, 10/90th percentile and outliers. Groups were statistically compared to the vehicle-treated groups using the Mann–Whitney U-test. Significance was defined at the level of P<0.05.

TA3-Ha mammary tumours = assay: TA3-Ha mammary carcinoma model
Description: as §2, §3

In the case of `C[C@@H]([C@H](c1ccc(Nc2nc3ccccc3s2)cc1)n1ccnc1)N(C)C` [R116010, [S-(R*,R*)]-N-[4-[2-(dimethylamino)-1-(1H-imidazole-1-yl)propyl]-phenyl]-2-benzothiazolamine], the “inhibition of RA metabolism (HPLC)” value [1] is reported as “completely inhibited”, the IC50 (CYP26A1) is reported as 0.004 µM and the IC50 (CYP2A1; Rat liver microsomes) is reported as over 10 µM. The inhibition at 10 μM (CYP2A1; probe testosterone (7α-hydroxylation), 10 μM R116010, rat liver microsomes, read-out: percentage of inhibition, Testosterone 7α-hydroxylase (CYP2A1)) was 12%, the inhibition at 10 μM (CYP2B1/2; 10 μM R116010, rat liver microsomes, read-out: percentage of inhibition, Testosterone 16β-hydroxylase (CYP2B1/2)) was 21% and the IC50 (CYP2B1/2; Rat liver microsomes) was over 10 µM. For the same molecule, the “enhancement of the antiproliferative activity of RA” value (“enhancement” below) (T47D cells; 0.01 μM R116010) was 1.25 fold, the “enhancement” value (T47D cells; 0.1 μM R116010) was 2.6 fold and the “enhancement” value (T47D cells; 1 μM R116010) was “three-fold”. The “effect on T47D cell proliferation by itself” value (T47D cells; compound alone, 7 days, MTT) was “no effect”, the “change in blood hormone levels” value [2] was “no change” and the “growth of orthotopically implanted Dunning R3327/PIF-1 carcinoma cells” value [3] was “inhibit the growth”. For the same molecule, the MTD (in vivo) was 5 mg/kg, the body weight decrease (TA3-Ha mammary tumours; R116010 5 mg kg^−1, mice) was about 15% and the toxicity findings (TA3-Ha mammary tumours; at toxic dose: RA 5, R116010 5, liarozole fumarate 20 mg kg^−1) was “hair loss and bone fractures”. The therapeutic window (TA3-Ha mammary tumours; maximum tolerated dose versus lowest active dose, TA3-Ha model) was 30 fold, the “dose at which toxicity was observed” value (TA3-Ha mammary tumours; mice, oral, twice daily, toxicity related to hypervitaminosis A) was 5 mg/kg and the “fold more potent than liarozole-fumarate in TA3-Ha model” value (TA3-Ha mammary tumours; oral, twice daily) was “approximately 60 fold”. The “lowest active dose inhibiting TA3-Ha tumour growth” value (TA3-Ha mammary tumours; oral, twice daily, day 1 until day 21, tumour weight) was 0.16 mg/kg.
